Experimental data: patent US4172943A, “(8-Substituted-10-hydroxy-5,5-dimethyl-1,2 ,3,4-tetrahydro-5H-(1)benzopyrano(4,3-C)pyridin-2-yl)acetyl ureas and derivatives” (Abbott Laboratories, priority 1978, dated 1979)

Experiments:
[1] = system: response time to radiated heat focused on the tail (rat tail flick); assay: Rat Tail Flick Test; assay type: in vivo, male, Sprague-Dawley rats; details: for average response time, 1 Hr. / Activity - Increase in Response Time (2 Hrs.) / average response time, 2 Hrs. / average response time, 3 Hrs.: p.o.
Procedure: In this test, groups of 10 male, Sprague-Dawley rats, weighing 142-170 g. were orally (p.o.) gavaged with compound (V) after the average normal response time to radiated heat focused on the tail had been established by two trials. Response times were recorded hourly for 3 hours after the administration of the compound. The activity was determined as the percent increase in response time over the average normal response for the response for the respective group. An ED50 value representing the dose producing a 50% increase in average response time was calculated by a linear regression program.

[2] = system: acetic acid writhing response; assay: Mouse (Acetic Acid) Writhing Test; assay type: in vivo, female, ICR mice; details: for Activity % Inhibition / Ave. Number of Writhes (20 min.): p.o., one hour before acetic acid; for Ave. Number of Writhes (20 min.): controls 55.0
Procedure: In this test, groups of 5 female, ICR mice (Schmidt) weighing 19-25 g. were orally (p.o.) gavaged with compound (V) one hour prior to the intraperitoneal injection of 0.4 ml. of acetic acid 0.5% (v/v). Five minutes after the acid injection, the number of writhing responses over a 20 minute period were counted. One group received an oral dose of vehicle only to serve as controls. Activity was determined as the percent difference (inhibition) between the average number of writhes for the test groups as compared to the controls. An ED50 value representing the dose producing a 50% inhibition of the writhing response was calculated by a linear regression program.

[3] = system: methamphetamine-induced hyperactivity in rats; assay: Rat Desoxyn Antagonism Test; assay type: in vivo; details: methamphetamine 1 mg./kg., i.p.
Procedure: In this test, the antagonism or potentiation of methamphetamine-induced hyperactivity in rats was evaluated in motor activity chambers equipped with photocells (Lehigh Valley, Model #1497). Groups of rats were premedicated with Compound (V) and then administered methamphetamine (1 mg./kg., i.p.). One rat was placed in each chamber and three rats were used per test dose. Effect was recorded as percent change in counts from the photocells compared to methamphetamine-treated controls.

CC(CCCc1ccc(F)cc1)c1cc(O)c2c(c1)OC(C)(C)C1=C2CN(CC(=O)NC(N)=O)CC1 (centres unmarked) [Compound V, {{8-[5-(4-Fluorophenyl)-2-pentyl]-10-hydroxy-5,5-dimethyl-1,2,3,4-tetrahydro-5H-[1]benzopyrano[4,3-c]pyridin-2-yl}acetyl}urea]
average response time, 1 Hr. ([1]; 1.0 mg./kg., Normal 8.03): 9.03 s | Activity - Increase in Response Time (2 Hrs.) ([1]; 1.0 mg./kg., 2 hrs): 30.0% | average response time, 2 Hrs. ([1]; 1.0 mg./kg., 2 hrs, Normal 8.03): 10.44 s | average response time, 3 Hrs. ([1]; 1.0 mg./kg., Normal 8.03): 11.22 s | average response time, 1 Hr. ([1]; 2.0 mg./kg., Normal 6.80): 8.92 s | Activity - Increase in Response Time (2 Hrs.) ([1]; 2.0 mg./kg., 2 hrs): 56.0% | average response time, 2 Hrs. ([1]; 2.0 mg./kg., 2 hrs, Normal 6.80): 10.61 s | average response time, 3 Hrs. ([1]; 2.0 mg./kg., Normal 6.80): 10.99 s | average response time, 1 Hr. ([1]; 4.0 mg./kg., Normal 8.30): 11.13 s | Activity - Increase in Response Time (2 Hrs.) ([1]; 4.0 mg./kg., 2 hrs): 95.2% | average response time, 2 Hrs. ([1]; 4.0 mg./kg., 2 hrs, Normal 8.30): 16.20 s | average response time, 3 Hrs. ([1]; 4.0 mg./kg., Normal 8.30, average includes maximum values (30 seconds cut-off time)): 16.98 s | average response time, 1 Hr. ([1]; 8.0 mg./kg., Normal 7.97, average includes maximum values (30 seconds cut-off time)): 13.63 s | Activity - Increase in Response Time (2 Hrs.) ([1]; 8.0 mg./kg., 2 hrs): 98.6% | average response time, 2 Hrs. ([1]; 8.0 mg./kg., 2 hrs, Normal 7.97, average includes maximum values (30 seconds cut-off time)): 15.83 s | average response time, 3 Hrs. ([1]; 8.0 mg./kg., Normal 7.97): 14.32 s | ED50 ([1]; Rattus norvegicus, po, 2 hrs, dose producing 50% increase in average response time, linear regression, (0.02, 3.19) printed after value): 1.6 mg/kg | Activity % Inhibition ([2]; 0.5 mg./kg.): 48.4% | Ave. Number of Writhes (20 min.) ([2]; 0.5 mg./kg.): 28.4 | Activity % Inhibition ([2]; 1.0 mg./kg.): 50.2% | Ave. Number of Writhes (20 min.) ([2]; 1.0 mg./kg.): 27.4 | Activity % Inhibition ([2]; 2.0 mg./kg.): 72.4% | Ave. Number of Writhes (20 min.) ([2]; 2.0 mg./kg.): 15.2 | Activity % Inhibition ([2]; 4.0 mg./kg.): 89.1% | Ave. Number of Writhes (20 min.) ([2]; 4.0 mg./kg.): 6.0 | ED50 ([2]; Mus musculus, po, dose producing 50% inhibition of writhing response, linear regression, (0.4, 1.0) printed after value): 0.7 mg/kg | % Decreased Activity Over Control ([3]; oral dose 5 mg./kg.): 75% | % Decreased Activity Over Control ([3]; oral dose 20 mg./kg.): 93% | % Decreased Activity Over Control ([3]; oral dose 80 mg./kg.): 84%
